In the NIST ThermoML archive (doi:10.1016/j.jct.2005.03.019):

Assay: xn = mol fraction of the nth substance listed
Conditions: 101 kPa, Liquid, Vibrating tube method

CC1COC(=O)O1 (centres undefined) [4-methyl-1,3-dioxolan-2-one] + Cc1ccccc1
Conditions	mass density [kg/m3]
293.15 K, x2 = 0	1200.3
293.15 K, x2 = 0.0578	1177.7
293.15 K, x2 = 0.1279	1151
293.15 K, x2 = 0.1735	1133.9
293.15 K, x2 = 0.2387	1110
293.15 K, x2 = 0.3248	1079.4
293.15 K, x2 = 0.3891	1057.1
293.15 K, x2 = 0.4398	1039.9
293.15 K, x2 = 0.5179	1014
293.15 K, x2 = 0.5621	999.7
293.15 K, x2 = 0.6381	975.4
293.15 K, x2 = 0.7139	951.8
293.15 K, x2 = 0.7639	936.5
293.15 K, x2 = 0.8247	918.2
293.15 K, x2 = 0.8739	903.6
293.15 K, x2 = 0.9376	884.9
303.15 K, x2 = 0	1180.6
303.15 K, x2 = 0.0516	1161
303.15 K, x2 = 0.1211	1135.3
303.15 K, x2 = 0.1782	1114.7
303.15 K, x2 = 0.2298	1096.4
303.15 K, x2 = 0.2971	1073
303.15 K, x2 = 0.3565	1052.9
303.15 K, x2 = 0.4134	1034
303.15 K, x2 = 0.4681	1016.2
303.15 K, x2 = 0.5371	994.2
303.15 K, x2 = 0.6021	973.9
303.15 K, x2 = 0.6629	955.4
303.15 K, x2 = 0.7232	937.2
303.15 K, x2 = 0.7832	919.5
303.15 K, x2 = 0.8537	899.1
303.15 K, x2 = 0.9245	878.8
313.15 K, x2 = 0	1161.3
313.15 K, x2 = 0.0467	1144.2
313.15 K, x2 = 0.1274	1115.2
313.15 K, x2 = 0.1832	1095.7
313.15 K, x2 = 0.2572	1070.4
313.15 K, x2 = 0.3291	1046.5
313.15 K, x2 = 0.3938	1025.5
313.15 K, x2 = 0.4531	1006.7
313.15 K, x2 = 0.5291	983.2
313.15 K, x2 = 0.5919	964.2
313.15 K, x2 = 0.6472	947.7
313.15 K, x2 = 0.6938	934.1
313.15 K, x2 = 0.7524	917.2
313.15 K, x2 = 0.8138	899.7
313.15 K, x2 = 0.8623	886.1
313.15 K, x2 = 0.9427	863.9
323.15 K, x2 = 0	1142.4
323.15 K, x2 = 0.0592	1121.4
323.15 K, x2 = 0.114	1102.4
323.15 K, x2 = 0.1734	1082.1
323.15 K, x2 = 0.2378	1060.7
323.15 K, x2 = 0.3139	1036
323.15 K, x2 = 0.3681	1018.8
323.15 K, x2 = 0.4244	1001.4
323.15 K, x2 = 0.4711	987.1
323.15 K, x2 = 0.5137	974.3
323.15 K, x2 = 0.5828	954
323.15 K, x2 = 0.6528	933.8
323.15 K, x2 = 0.725	913.4
323.15 K, x2 = 0.7941	894.2
323.15 K, x2 = 0.8529	878.2
323.15 K, x2 = 0.9172	860.9
333.15 K, x2 = 0	1124
333.15 K, x2 = 0.0545	1105.2
333.15 K, x2 = 0.1287	1080.2
333.15 K, x2 = 0.1831	1062.3
333.15 K, x2 = 0.2417	1043.4
333.15 K, x2 = 0.3274	1016.5
333.15 K, x2 = 0.3818	999.9
333.15 K, x2 = 0.4383	983
333.15 K, x2 = 0.4819	970.1
333.15 K, x2 = 0.5381	953.9
333.15 K, x2 = 0.5821	941.3
333.15 K, x2 = 0.6421	924.5
333.15 K, x2 = 0.7138	904.8
333.15 K, x2 = 0.7832	886.1
333.15 K, x2 = 0.8527	867.7
333.15 K, x2 = 0.9323	846.9
343.15 K, x2 = 0	1106
343.15 K, x2 = 0.0613	1085.5
343.15 K, x2 = 0.1248	1064.7
343.15 K, x2 = 0.1822	1046.3
343.15 K, x2 = 0.2489	1025.5
343.15 K, x2 = 0.3011	1009.5
343.15 K, x2 = 0.3719	988.4
343.15 K, x2 = 0.458	963.3
343.15 K, x2 = 0.5043	950.2
343.15 K, x2 = 0.5729	931.1
343.15 K, x2 = 0.6429	912
343.15 K, x2 = 0.7041	895.7
343.15 K, x2 = 0.7634	880.1
343.15 K, x2 = 0.8241	864.4
343.15 K, x2 = 0.8721	852.2
343.15 K, x2 = 0.9347	836.3
353.15 K, x2 = 0	1088.4
353.15 K, x2 = 0.0524	1071.3
353.15 K, x2 = 0.1139	1051.6
353.15 K, x2 = 0.1942	1026.6
353.15 K, x2 = 0.2589	1007
353.15 K, x2 = 0.3238	987.8
353.15 K, x2 = 0.4035	964.9
353.15 K, x2 = 0.4598	949.1
353.15 K, x2 = 0.5243	931.4
353.15 K, x2 = 0.5825	915.7
353.15 K, x2 = 0.6359	901.6
353.15 K, x2 = 0.693	886.8
353.15 K, x2 = 0.7749	865.9
353.15 K, x2 = 0.8371	850.3
353.15 K, x2 = 0.8689	842.4
353.15 K, x2 = 0.9432	824.2

CC1COC(=O)O1 (centres undefined) [4-methyl-1,3-dioxolan-2-one] + c1ccccc1
Conditions	mass density [kg/m3]
293.15 K, x2 = 0	1200.3
293.15 K, x2 = 0.049	1184.5
293.15 K, x2 = 0.1189	1162
293.15 K, x2 = 0.1749	1144.1
293.15 K, x2 = 0.2349	1125
293.15 K, x2 = 0.2949	1105.9
293.15 K, x2 = 0.3649	1083.6
293.15 K, x2 = 0.4248	1064.6
293.15 K, x2 = 0.4959	1041.9
293.15 K, x2 = 0.5529	1023.8
293.15 K, x2 = 0.6249	1000.7
293.15 K, x2 = 0.6934	978.6
293.15 K, x2 = 0.7539	959
293.15 K, x2 = 0.8135	939.6
293.15 K, x2 = 0.8622	923.6
293.15 K, x2 = 0.9248	902.9
303.15 K, x2 = 0	1180.6
303.15 K, x2 = 0.0487	1165.3
303.15 K, x2 = 0.1273	1140.9
303.15 K, x2 = 0.1841	1123.3
303.15 K, x2 = 0.2487	1103.3
303.15 K, x2 = 0.3127	1083.6
303.15 K, x2 = 0.3749	1064.4
303.15 K, x2 = 0.4364	1045.4
303.15 K, x2 = 0.4821	1031.4
303.15 K, x2 = 0.5428	1012.6
303.15 K, x2 = 0.6038	993.7
303.15 K, x2 = 0.6782	970.5
303.15 K, x2 = 0.7465	949.1
303.15 K, x2 = 0.8246	924.4
303.15 K, x2 = 0.8846	905.3
303.15 K, x2 = 0.9381	888.1
313.15 K, x2 = 0	1161.3
313.15 K, x2 = 0.0537	1145
313.15 K, x2 = 0.1295	1122
313.15 K, x2 = 0.1649	1111.4
313.15 K, x2 = 0.2359	1090
313.15 K, x2 = 0.3139	1066.7
313.15 K, x2 = 0.3619	1052.3
313.15 K, x2 = 0.4143	1036.6
313.15 K, x2 = 0.4829	1016.1
313.15 K, x2 = 0.5498	996.1
313.15 K, x2 = 0.625	973.4
313.15 K, x2 = 0.6821	956.2
313.15 K, x2 = 0.7492	935.8
313.15 K, x2 = 0.8247	912.6
313.15 K, x2 = 0.8732	897.6
313.15 K, x2 = 0.9348	878.4
323.15 K, x2 = 0	1142.4
323.15 K, x2 = 0.0598	1124.7
323.15 K, x2 = 0.131	1103.7
323.15 K, x2 = 0.1856	1087.7
323.15 K, x2 = 0.2438	1070.7
323.15 K, x2 = 0.3257	1046.8
323.15 K, x2 = 0.3987	1025.6
323.15 K, x2 = 0.4589	1008.1
323.15 K, x2 = 0.5156	991.6
323.15 K, x2 = 0.5687	976.1
323.15 K, x2 = 0.6145	962.7
323.15 K, x2 = 0.6647	948
323.15 K, x2 = 0.7365	926.8
323.15 K, x2 = 0.7965	909
323.15 K, x2 = 0.8567	891
323.15 K, x2 = 0.9267	869.8
333.15 K, x2 = 0	1124
333.15 K, x2 = 0.0592	1106.9
333.15 K, x2 = 0.1281	1087
333.15 K, x2 = 0.1834	1071.2
333.15 K, x2 = 0.2487	1052.6
333.15 K, x2 = 0.3279	1030.1
333.15 K, x2 = 0.3987	1010
333.15 K, x2 = 0.4598	992.7
333.15 K, x2 = 0.5139	977.4
333.15 K, x2 = 0.5533	966.2
333.15 K, x2 = 0.6138	949
333.15 K, x2 = 0.6623	935.1
333.15 K, x2 = 0.7246	917.3
333.15 K, x2 = 0.7749	902.7
333.15 K, x2 = 0.8568	878.9
333.15 K, x2 = 0.9248	858.9
343.15 K, x2 = 0	1106
343.15 K, x2 = 0.0638	1087.9
343.15 K, x2 = 0.1139	1073.8
343.15 K, x2 = 0.1756	1056.4
343.15 K, x2 = 0.2439	1037.4
343.15 K, x2 = 0.3178	1016.9
343.15 K, x2 = 0.3875	997.6
343.15 K, x2 = 0.4583	978
343.15 K, x2 = 0.5076	964.3
343.15 K, x2 = 0.5586	950.2
343.15 K, x2 = 0.6246	931.9
343.15 K, x2 = 0.6981	911.4
343.15 K, x2 = 0.7528	896.1
343.15 K, x2 = 0.8137	878.9
343.15 K, x2 = 0.8748	861.5
343.15 K, x2 = 0.9361	843.9
353.15 K, x2 = 0	1088.4
353.15 K, x2 = 0.053	1073.6
353.15 K, x2 = 0.1329	1051.5
353.15 K, x2 = 0.1822	1037.9
353.15 K, x2 = 0.2378	1022.7
353.15 K, x2 = 0.3327	996.9
353.15 K, x2 = 0.381	983.8
353.15 K, x2 = 0.4485	965.5
353.15 K, x2 = 0.5236	945.2
353.15 K, x2 = 0.5728	931.9
353.15 K, x2 = 0.6387	914
353.15 K, x2 = 0.6831	901.9
353.15 K, x2 = 0.7428	885.6
353.15 K, x2 = 0.7933	871.7
353.15 K, x2 = 0.8642	852.1
353.15 K, x2 = 0.9461	829.2
